pIC50: −log10 of the molar value.
How the values were obtained:
[1] = biological target: eosinophil membranes (LTB4 binding); details: read-out: IC50 for inhibition of the binding of radiolabeled LTB4 to eosinophil membranes; cited from earlier work
ROS = ROS levels in BAL fluid cells (DCF fluorescence, FACS); assay type: in vivo, mouse; details: 1.6 mg/kg i.v. 24 hr and 1 hr before 10% OVA; BAL fluid 48 h after challenge
Protocol: Female BALB/c mice and C57BL/6 mice (7 weeks old; 18-20 g) were obtained from Orientbion Inc. (Seoungnam, Korea). Sensitization and challenge were carried out as described previously with some modification (28). Briefly, female C57BL/6 mice (7 weeks old; 18-20 g) were immunized by intraperitoneal (i.p.) injection of 200 μg ovalbumin (OVA) emulsified in 2.5 mg of adjuvant aluminum hydroperoxide gel (alum) (Pierce, Rockford, Ill.). A second i.p. injection of 20 μg OVA adsorbed onto alum (2.5 mg) was administered 10 days later. After an additional 10 days, mice were exposed to an aerosol of 1% OVA in saline for 30 min daily on 3 consecutive days. On day 25, mice were finally challenged by provocation with 10% OVA aerosol. For inhibition experiments, sense or antisense BLT2 (1.6 mg/kg) was injected intravenously 24 h and then 1 h before the 10% OVA challenge. The mice were then killed on day 27 to assess asthmatic phenotypes. Antisense BLT2 oligonucleotide (5′-[…]-3′ (SEQ ID NO: 15)), sense BLT2 oligonucleotide (5′-[…]-3′ (SEQ ID NO: 16)).
ROS levels in BAL fluids were measured as a function of DCF fluorescence as described previously (30). […] DCF fluorescence was excited at 488 nm and the evoked emission was filtered with a 515-nm long-pass filter. […]

| Compound | pIC50 [1] | reduction of ROS levels in BAL fluid (ROS) [%] |
| --- | --- | --- |
| CCc1cc(C(C)=O)c(O)cc1OCCCCCC(C)(C)c1nnn[nH]1 [LY255283, 1-[5-ethyl-2-hydroxy-4-[[6-methyl-6-(1H-tetrazol-5-yl)heptyl]oxy]phenyl]-ethanone, reference compound] | 6.59 | – |
| antisense BLT2: Antisense BLT2 oligonucleotide 5′-GCTCAGTAGTGTCTCATTCC-3′ (SEQ ID NO: 15) (listed as DNA, chemistry not fully specified) | – | −70 |
